US20100144733A1, “Compounds, compositions and methods comprising heteroaromatic derivatives” (Institute for OneWorld Health, priority 2008, published 2010)

Molecular target: T1, CFTR (Homo sapiens, UniProt P13569)
T1 construct: endogenous in cells; host or cells: T84 human colonic cells (ECACC)
Assay: T84 assay (FLIPR membrane potential dye, forskolin/IBMX-stimulated CFTR channel activity)
Assay type: cell-based
Details: imidazole and triazole-containing compounds (Tables 13, 14, 14′), read-out: IC50 (μM) (T84 assay)
Method: (§1) For example, Human colonic T84 cells can be acquired from the European Collection of Cell Cultures (ECACC) and grown in standard culture conditions as described by the supplier. On the day before assay 25,000 T84 cells per well are plated into standard black walled, clear bottom 384-well assay plates in standard growth medium consisting of DMEM:F12 with 10% FBS and incubated overnight. On the day of the assay the plates are washed using a standard assay buffer (HBSS with 10 mM Hepes) and incubated for 15 minutes in serum free cell culture medium before the addition of a commercially available membrane potential sensitive fluorescent dye (FLIPRRed membrane potential dye, Molecular Devices Corporation). T84 cells are incubated with the FLIPRRed membrane potential dye for 45 minutes in the presence and absence of test compound before being transferred to a commercially available fluorescence imaging plate reader (FLIPR384, Molecular Devices Corporation). Fluorescence levels are monitored continuously every second for 150 seconds; after an initial 10 second baseline, CFTR channel activity is stimulated through the addition of 10 μM forskolin in the presence of 100 μM of the phosphodiesterase inhibitor iso-butyl-methylxanthine (IBMX). Addition of the forskolin leads to the activation of intracellular adenylyl cylase 1, elevating cAMP levels and results in the phosphorylation and opening of CFTR anion channels. CFTR channel opening causes chloride ion efflux and subsequent depolarization of the cells, which is measured by an increase in fluorescence. CFTR inihibitor compounds prevent cell depolarization and the associatred increase in fluorescence.
as §1, with “Human colonic” for “For example, Human colonic”, “T84 cells are acquired from” for “T84 cells can be acquired from”, “(ECACC) and are grown in” for “(ECACC) and grown in”, “10 μM Forskolin in the” for “10 μM forskolin in the”, “fluorescence. CFTR inhibitor compounds prevent” for “fluorescence. CFTR inihibitor compounds prevent”, “and the associated increase in” for “and the associatred increase in”

T1 sequence (P13569 whole entry): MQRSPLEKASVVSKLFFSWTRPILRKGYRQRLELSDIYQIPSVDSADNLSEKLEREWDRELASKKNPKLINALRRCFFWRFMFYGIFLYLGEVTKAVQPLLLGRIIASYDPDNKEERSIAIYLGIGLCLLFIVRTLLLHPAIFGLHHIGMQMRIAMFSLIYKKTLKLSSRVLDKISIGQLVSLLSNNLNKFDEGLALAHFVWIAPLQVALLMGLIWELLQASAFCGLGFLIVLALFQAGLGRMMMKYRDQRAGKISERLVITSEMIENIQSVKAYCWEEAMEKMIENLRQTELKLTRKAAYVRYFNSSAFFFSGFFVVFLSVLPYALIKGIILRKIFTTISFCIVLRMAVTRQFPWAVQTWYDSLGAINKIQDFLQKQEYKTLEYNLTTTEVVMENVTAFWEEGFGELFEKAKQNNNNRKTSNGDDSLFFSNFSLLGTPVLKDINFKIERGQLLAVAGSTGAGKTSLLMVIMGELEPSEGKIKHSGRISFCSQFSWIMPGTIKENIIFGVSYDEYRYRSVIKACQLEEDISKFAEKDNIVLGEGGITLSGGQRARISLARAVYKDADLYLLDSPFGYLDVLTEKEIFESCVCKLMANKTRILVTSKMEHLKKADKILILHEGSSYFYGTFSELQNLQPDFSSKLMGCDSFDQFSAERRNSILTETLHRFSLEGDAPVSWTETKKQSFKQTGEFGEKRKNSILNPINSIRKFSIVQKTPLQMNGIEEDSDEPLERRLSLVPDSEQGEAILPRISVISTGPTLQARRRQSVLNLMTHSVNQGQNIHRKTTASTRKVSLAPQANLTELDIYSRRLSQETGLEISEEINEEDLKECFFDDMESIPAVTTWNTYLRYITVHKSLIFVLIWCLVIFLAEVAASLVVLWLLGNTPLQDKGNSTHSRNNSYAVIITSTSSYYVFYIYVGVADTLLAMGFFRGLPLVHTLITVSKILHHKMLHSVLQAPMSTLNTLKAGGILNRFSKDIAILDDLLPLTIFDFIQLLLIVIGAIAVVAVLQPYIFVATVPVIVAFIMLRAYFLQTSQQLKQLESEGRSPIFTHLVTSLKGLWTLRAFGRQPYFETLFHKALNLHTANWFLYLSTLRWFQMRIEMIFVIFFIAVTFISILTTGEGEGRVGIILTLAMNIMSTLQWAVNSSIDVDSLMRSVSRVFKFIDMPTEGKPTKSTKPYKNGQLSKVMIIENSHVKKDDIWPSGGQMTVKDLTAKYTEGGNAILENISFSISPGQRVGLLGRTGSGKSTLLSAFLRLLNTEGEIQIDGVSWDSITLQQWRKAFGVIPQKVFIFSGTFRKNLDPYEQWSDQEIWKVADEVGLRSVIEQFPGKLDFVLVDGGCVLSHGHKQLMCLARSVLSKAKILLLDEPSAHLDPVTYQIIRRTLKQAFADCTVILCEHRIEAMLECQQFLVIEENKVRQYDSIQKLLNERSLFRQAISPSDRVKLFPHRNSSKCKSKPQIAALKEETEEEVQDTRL

SMILES	IC50
CN(C(=O)c1ncn(-c2cc(Cl)c(O)c(Cl)c2)n1)c1ccc(OC(F)(F)F)cc1 [21i]	15.7 µM
CN(Cc1ccc(Cl)cc1)C(=O)c1ncn(-c2cc(Cl)c(O)c(Cl)c2)n1 [22i, N-(4-chlorobenzyl)-1-(3,5-dichloro-4-hydroxyphenyl)-N-methyl-1H-1,2,4-triazole-3-carboxamide]	18.1 µM

Same assay, conditions: isoxazole-containing compounds (Table 10, 10′, 11, 11′), read-out: IC50

SMILES	IC50
O=C(c1cc(-c2cc(Br)c(O)c(Br)c2)on1)N1CCN(c2ccc(Cl)c(Cl)c2)CC1 [10g, (5-(3,5-dibromo-4-hydroxyphenyl)isoxazol-3-yl)(4-(3,4-dichlorophenyl)piperazin-1-yl)methanone]	7.4 µM
COc1ccccc1N1CCN(C(=O)c2cc(-c3cc(Br)c(O)c(Br)c3)on2)CC1 [11g, (5-(3,5-dibromo-4-hydroxyphenyl)isoxazol-3-yl)(4(2-methoxyphenyl)piperazin-1-yl)methanone]	14.2 µM
O=C(c1cc(-c2cc(Cl)c(O)c(Cl)c2)on1)N1CCC(Cc2ccccc2)CC1 [12g, (4-benzylpiperidin-1-yl)(5-(3,5-dichloro-4-hydroxyphenyl)isoxazol-3-yl)methanone]	6.51 µM

Same assay, conditions: oxadiazole-containing compounds (a series), average of at least 2 runs unless annotated n = 1, read-out: IC50

SMILES	IC50
CN(Cc1cccc(C(F)(F)F)c1)C(=O)c1nc(-c2cc(Br)c(O)c(Br)c2)no1 [11a, 3-(3,5-dibromo-4-hydroxyphenyl)-N-methyl-N-(3-(trifluoromethyl)benzyl)-1,2,4-oxadiazole-5-carboxamide]	7.74 µM
O=C(NCc1cccc(OC(F)(F)F)c1)c1nc(-c2cc(Br)c(O)c(Br)c2)no1 [12a, 3-(3,5-dibromo-4-hydroxyphenyl)-N-(3-(trifluoromethoxy)benzyl)-1,2,4-oxadiazole-5-carboxamide]	7.89 µM
O=C(NCCC(c1ccccc1)c1ccccc1)c1nc(-c2cc(Br)c(O)c(Br)c2)no1 [14a, 3-(3,5-dibromo-4-hydroxyphenyl)-N-(3,3-diphenylpropyl)-1,2,4-oxadiazole-5-carboxamide]	8.92 µM
O=C(NC(c1ccccc1)c1ccccc1)c1nc(-c2cc(Cl)c(O)c(Cl)c2)no1 [15a, N-benzhydryl-3-(3,5-dichloro-4-hydroxyphenyl)-1,2,4-oxadiazole-5-carboxamide]	9 µM
O=C(c1nc(-c2cc(Br)c(O)c(Br)c2)no1)N1CCN(c2ccccc2)CC1 [16a, (3-(3,5-dibromo-4-hydroxyphenyl)-1,2,4-oxadiazol-5-yl)(4-phenylpiperazin-1-yl)methanone]	9.13 µM
O=C(c1nc(-c2cc(Br)c(O)c(Br)c2)no1)N1CCC(Cc2ccccc2)CC1 [18a, (4-benzylpiperidin-1-yl)(3-(3,5-dibromo-4-hydroxyphenyl)-1,2,4-oxadiazol-5-yl)methanone]	12.3 µM
O=C(c1nc(-c2cc(Br)c(O)c(Br)c2)no1)N1CCN(c2ccc(Cl)cc2F)CC1 [19a, (4-(4-chloro-2-fluorophenyl)piperazin-1-yl)(3-(3,5-dibromo-4-hydroxyphenyl)-1,2,4-oxadiazol-5-yl)methanone]	7.1 µM
O=C(NCc1cc(C(F)(F)F)cc(C(F)(F)F)c1)c1nc(-c2cc(Br)c(O)c(Br)c2)no1 [20a, N-(3,5-bis(trifluoromethyl)benzyl)-3-(3,5-dibromo-4-hydroxyphenyl)-1,2,4-oxadiazole-5-carboxamide]	10.5 µM
O=C(c1nc(-c2cc(Br)c(O)c(Br)c2)no1)N(Cc1cccc(C(F)(F)F)c1)Cc1cccc(C(F)(F)F)c1 [21a, 3-(3,5-dibromo-4-hydroxyphenyl)-N,N-bis(3-(trifluoromethyl)benzyl)-1,2,4-oxadiazole-5-carboxamide]	10.9 µM
O=C(NCc1ccc(Cl)c(Cl)c1)c1nc(-c2cc(Br)c(O)c(Br)c2)no1 [22a, 3-(3,5-dibromo-4-hydroxyphenyl)-N-(3,4-dichlorobenzyl)-1,2,4-oxadiazole-5-carboxamide]	11 µM

Same assay, conditions: thiadiazole-containing compounds (Table 12), read-out: IC50

SMILES	IC50
Oc1c(Cl)cc(-c2nnc(Oc3ccc(Oc4ccccc4)cc3)s2)cc1Cl [10h, 2,6-dichloro-4-(5-(4-phenoxyphenoxy)-1,3,4-thiadiazol-2-yl)phenol]	20.8 µM
